Results: ChEMBL document CHEMBL1828591, “Synthesis of antimitotic thioglycosides: in vitro and in vivo evaluation of their anticancer activity” (J Med Chem, 2011)
The source made the active and inactive calls. The calls are words filed in the database; no cut-off is given here.

Columns and labels:
A549 [1] = assay: Antiproliferative activity against human A549 cells after 48 hrs by MTT assay; assay type: functional; conditions: A549, 48 h, read-out: ID50 (the source's name)
C6 [2] = assay: Antiproliferative activity against rat C6 cells after 48 hrs by MTT assay; assay type: functional; conditions: C6, 48 h, read-out: ID50 (the source's name)
A549 [3] = assay: Reduction in glucosylceramide content of human A549 cell extract at 15 uM after 48 hrs by UPLC-MS analysis; assay type: functional, cell-based
A549 [4] = assay: Elevation in lactosylceramide content of human A549 cell extract at 15 uM after 48 hrs by UPLC-MS analysis; assay type: functional
A549 [5] = assay: Reduction in ganglioside GM2 content of human A549 cell extract at 15 uM after 48 hrs by UPLC-MS analysis; assay type: functional, cell-based
A549 [6] = assay: Reduction in ganglioside GM3 content of human A549 cell extract at 15 uM after 48 hrs by UPLC-MS analysis; assay type: functional, cell-based
A549 [7] = assay: Drug uptake in 10^6 human A549 cells at 15 uM after 48 hrs by UPLC-MS analysis; assay type: ADME, cell-based; conditions: a549, 48 h
C6 [8] = assay: Antitumor activity against rat C6 cells xenografted in nude mouse assessed as reduction in tumor size at 1 mg/kg, intratumorally administered for 14 days; assay type: functional, organism-based; parameters: dose 1 mg/kg
C6 [9] = assay: Antitumor activity against rat C6 cells xenografted in nude mouse assessed as reduction in tumor size at 10 mg/kg, intratumorally administered for 14 days relative to control; assay type: functional, organism-based; parameters: dose 10 mg/kg
C6 [10] = assay: Antitumor activity against rat C6 cells xenografted in nude mouse assessed as reduction of creatine levels in tumor at 10 mg/kg, intratumorally administered for 14 days by 1H MAS NMR spectroscopy relative to control; assay type: functional, organism-based; parameters: dose 10 mg/kg
C6 [11] = assay: Antitumor activity against rat C6 cells xenografted in nude mouse assessed as increase in choline-containing metabolite levels in tumor at 10 mg/kg, intratumorally administered for 14 days by 1H MAS NMR spectroscopy relative to control; assay type: functional, organism-based; parameters: dose 10 mg/kg
C6 [12] = assay: Antitumor activity against rat C6 cells xenografted in nude mouse assessed as increase in lactate levels in tumor at 10 mg/kg, intratumorally administered for 14 days by 1H MAS NMR spectroscopy relative to control; assay type: functional, organism-based; parameters: dose 10 mg/kg
C6 [13] = assay: Antitumor activity against rat C6 cells xenografted in nude mouse assessed as increase in acetate levels in tumor at 10 mg/kg, intratumorally administered for 14 days by 1H MAS NMR spectroscopy relative to control; assay type: functional, organism-based; parameters: dose 10 mg/kg
[14] = Drug uptake in cyst of nude mouse xenografted with rat C6 cells assessed as formation of olelyl alcohol at 10 mg/kg, intratumorally administered for 8 days by 1H MAS NMR spectroscopy; assay type: ADME, organism-based; parameters: dose 10 mg/kg; conditions: in vivo, other, 192 h
C6 [15] = assay: Antitumor activity against rat C6 cells xenografted in nude mouse assessed as delay in tumor growth at 1 to 10 mg/kg, intratumorally administered for 8 days measured after 8 days relative to control; assay type: functional, organism-based
C6 [16] = assay: Antitumor activity against rat C6 cells xenografted in nude mouse assessed as reduction in tumor volume at 1 to 10 mg/kg, intratumorally administered for 8 days measured after 8 days relative to control; assay type: functional, organism-based
A549 [17] = assay: Elevation in glucosylceramide content of human A549 cell extract at 15 uM after 48 hrs by UPLC-MS analysis; assay type: functional, cell-based
[18] = Stability of the compound in presence of Jack bean N-acetyl-D-glucosaminidase at 1 mM after 48 hrs by HPLC analysis; assay type: ADME; conditions: 1000 µM
[19] = system: N-acetyl-D-glucosaminidase; assay: Stability of the compound in presence of Jack bean N-acetyl-D-glucosaminidase assessed as compound hydrolyzed to N-acetyl-D-glucosamine at 1 mM after 48 hrs by HPLC analysis; assay type: ADME; conditions: Jack bean N-acetyl-D-glucosaminidase (isolated enzyme), read-out: Activity

Row | IC50 (A549 [1]) [µM] | Drug uptake (A549 [7]) [pmol] | Drug uptake [14] | Stability [18] | metabolised at 48 h, 1000 µM [19] [%] | Structure (SMILES) | IC50 (C6 [2]) [µM] | Activity (A549 [3]) | Activity (A549 [4]) [%] | Activity (A549 [5]) | Activity (A549 [6]) | Activity (C6 [8]) | Activity (C6 [9]) | Activity (C6 [10]) | Activity (C6 [11]) | Activity (C6 [12]) | Activity (C6 [13]) | Activity (C6 [15]) | Activity (C6 [16]) | Activity (A549 [17])
1 | 35 | 3675 | – | – | – | CCCCCCCC/C=C\CCCCCCCCS[C@H]1O[C@H](CO)[C@@H](O)[C@H](O)[C@H]1NC(C)=O | 14 | inactive | 40 | Active | Active | inactive | Active | Active | Active | Active | Active | – | – | –
2 | 25 | 2916 | Active | – | – | CCCCCCCC/C=C\CCCCCCCCO[C@H]1O[C@H](CO)[C@@H](O)[C@H](O)[C@H]1NC(C)=O | 16 | inactive | 40 | Active | Active | inactive | – | – | – | – | – | inactive | inactive | –
3 | 30 | 3333 | – | Stable | – | CCCCCCCC/C=C\CCCCCCCCS[C@@H]1O[C@H](CO)[C@@H](O)[C@H](O)[C@H]1NC(C)=O | 26 | – | 40 | Active | Active | – | – | – | – | – | – | – | – | inactive
4 | 50 | 952 | – | – | 32 | CCCCCCCC/C=C\CCCCCCCCO[C@@H]1O[C@H](CO)[C@@H](O)[C@H](O)[C@H]1NC(C)=O | 38 | – | 40 | Active | Active | – | – | – | – | – | – | – | – | inactive
